Experimental data from US9198886B2, “Use of 2,5-dihydroxybenzene for the treatment of ocular diseases” (priority 2006, dated 2015).

Tests used:
[1] = system: intestinal inflammatory disease induced by dextran sulfate sodium; test: DSS-induced intestinal inflammatory disease in mice; assay type: in vivo, mice of strain C57BL/6J-664
Experimental: The mice were subject to two 7-day cycles of exposure to dextran sulfate sodium (DSS) (from day 1 to 7 and from day 14 to 21) in the drinking water separated by 7 days in which regular water was provided (from 7 to 14). One group was treated with vehicle (0.9% NaCl), another with Solu-Medrol (10 mg/kg/day i.m.), and the other two groups with potassium 2,5-diacetoxybenzene sulfonate (DABS), one of them with 100 mg/kg/day i.p. and the other with 125 mg/kg/day, orally (p.o.). The body weight was normalized on day 0. Data are expressed as the mean+SD of the percentage of the basal weight (day 0) of 10 mice per group.
The mice were subject to two 7-day cycles of exposure to dextran sulfate sodium (DSS) (from day 1 to 7 and from day 14 to 21) in the drinking water separated by 7 days in which regular water was provided (from 7 to 14). One group was treated with vehicle (0.9% NaCl), another with Solu-Medrol (10 mg/kg/day i.m.), and the other two groups with potassium 2,5-diacetoxybenzene sulfonate (DABS), one of them with 100 mg/kg/day i.p. and the other with 125 mg/kg/day, orally (p.o.) Data are expressed as the mean±SD of the clinical score of the disease continuously obtained from 10 mice per each group.
The induction of the intestinal inflammatory disease described below is a representative model for the evaluation of therapeutic strategies to treat Crohn's disease and ulcerative colitis. 7-8 week old female mice of strain C57BL/6J-664 were used. The intestinal inflammatory disease (HD) was induced by feeding the mice with 3% dextran sulfate sodium (DSS; MW 40,000) dissolved in drinking water in 2 cycles. Each cycle consisted of 7 days with 3% DSS in the drinking water separated by 7 days with regular water. A daily clinical evaluation of the animals was performed in which the body weight, the consistency of the faeces and the presence of blood in the faeces were determined. Thus, the validated score of the clinical activity of the disease was evaluated with a 0 to 6 scale, considering the following parameters: consistency of the faeces, presence or absence of fecal blood and loss of weight.
At the end of the first cycle of exposure to DSS, the mice were divided into the following treatment groups: a first group was administered intraperitoneal (i.p) injections of vehicle (0.9% NaCl). Another group received intramuscular injections of Solu-Medrol, a standard IID treatment, at a dose of 10 mg/kg/day. A third group was administered i.p. injections of potassium 2,5-diacetroxybenzene sulfonate (DABS, 100 mg/kg/day). The last group was treated orally with 125 mg/kg day of DABS.

Leishmania major = Leishmania major infection of the mouse paw pad; assay type: in vivo, BALB/c female mice
Text: This model is based in the massive inoculation of Leishmania promatigotes in the mouse paw pad. Under these conditions, the parasite induces a progressive inflammation correlated with the multiplication of parasites at the site of inoculation. BALB/c strain female mice that developed severe and uncontrolled injuries were used (Foote S J, Handman E. Brief Funct Genomic Proteomic, 2005). This model has been used in pharmacology to monitor the therapeutic capacity of new leishmanicide compounds and the preventive capacity of potential vaccines against leishmaniasis ((Nelson K G et al. Antimicrob Agents Chemother. 2006).
The animals were inoculated with 5×10^6 of L. major promastigotes (strain Hervás) in 50 μL of PBS into the plantar pad of the right back paw. As negative control of the infection, a group of mice inoculated with 50 μL of PBS was used. The sizes of the lesions were measured every 7 days until the animals were sacrificed (week 9) using a Vernier caliper. The thickness of the right back paw (infected) and the left back paw (uninfected) of all the animals was measured at the base of the fifth toe. The progression of the inflammation is represented as the difference in thickness between the infected and the non-infected paws. […]

[2] = biological target: fibroblast growth factor-1 (FGF-1) (Homo sapiens, UniProt P05230); test: FGF-1 induced mitogenesis in quiescent Balb/c 3T3 fibroblasts; assay type: cell-based; details: potassium salts, except 2-acetoxy-5-hydroxybenzene sulfonate as calcium salt
fibroblast growth factor-1 (FGF-1), sequence (P05230 whole entry, species assumed): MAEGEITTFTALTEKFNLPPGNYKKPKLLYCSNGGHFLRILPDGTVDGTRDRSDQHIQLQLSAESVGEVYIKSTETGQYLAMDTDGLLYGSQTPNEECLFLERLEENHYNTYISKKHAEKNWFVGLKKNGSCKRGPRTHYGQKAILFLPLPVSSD
Experimental: The evaluated compounds were used in the form of potassium salt, except in the first case in which calcium salt was used. The experiments were carried out as described in Fernández-Tornero C et al. J Biol Chem, 2003.

Nakagawa angioblastoma = test: Topical cream in a child with Nakagawa angioblastoma (hemangioblastoma); assay type: in vivo, human; details: cream 2.5%, topical twice a day, 1 month, one child
Text: Photographs showing the effects of a topical treatment with a cream comprising 2,5-dihydroxybenzenesulfonic (DHBS) in a child suffering from Nakagawa angioblastoma.
The cream comprising 2,5-dihydroxybenzene sulfonic (2.5%) was topically applied twice a day during 1 month on the face of the child suffering from Nakagawa angioblastoma.

SMILES | disease clinical score ([1]; 100 mg/kg/day i.p.) | disease clinical score ([1]; 125 mg/kg/day orally) | loss of body weight produced by two cycles of DSS ([1]; DABS 100 mg/kg/day i.p. or 125 mg/kg/day p.o., Solu-Medrol 10 mg/kg/day i.m., vs vehicle) | efficacy compared with standard treatment Solu-Medrol ([1]; body weight and clinical score, Solu-Medrol 10 mg/kg/day i.m.) | size of the lesion (paw thickness difference) (Leishmania major; 200 mg/kg/day i.p. from day 0 to week 9, effect from the third week post-infection) | FGF-1 induced mitogenesis [2] | coloration of the hemangioblastoma lesion (Nakagawa angioblastoma) | increase of paw thickness (infected vs non-infected paw) (Leishmania major; potassium salt 200 mg/kg i.p. daily for 14 days from third week after infection, effect from the eighth week)
CC(=O)Oc1ccc(OC(C)=O)c(S(=O)(=O)[O-])c1.[K+] [DABS, potassium 2,5-diacetoxybenzene sulfonate] | reduced | reduced | reduced | not lower (in some points it is higher) | statistically significant reduction in the size of the lesion | Inhibition of FGF-1 induced mitogenesis was observed |  | 
O=S(=O)(O)c1cc(O)ccc1O [DHBS, 2,5-dihydroxybenzene sulfonic acid] |  |  |  |  |  | Inhibition of the mitogenesis | reduction in the intensity of the reddish coloration | significant reduction in the increase of paw thickness
